Consider 18 compounds from patent publication US7981903B2, “2-[2-{phenylamino}-1H-pyrrolo[2,3-D]pyrimidin-4-yl)amino] benzamide derivatives as IGF-1R inhibitors for the treatment of cancer” (GlaxoSmithKline LLC, priority 2007, dated 2011).

The target of one test is T1, human IGF1R (hIGF1R) (Homo sapiens, UniProt P08069).
T1 construct: containing amino acid residues 957-1367 of human IGF1R; made in house; host or cells: Sf9 cells (baculovirus)
The test can be described thus: TR-FRET kinase assay of purified hIGF1R. It counts as biochemical. Conditions: activated hIGF1R 0.5 nM, 10 μM ATP, values given as pIC50 category, read-out: IGF-1R pIC50 (converted).

The target in a further test is T2, human IR (hIR) (Homo sapiens, UniProt P06213).
T2 construct: containing amino acid residues 979-1382 of human IR; made in house; host or cells: Sf9 cells (baculovirus), same process as hIGF1R
T2 sequence (P06213 979-1382): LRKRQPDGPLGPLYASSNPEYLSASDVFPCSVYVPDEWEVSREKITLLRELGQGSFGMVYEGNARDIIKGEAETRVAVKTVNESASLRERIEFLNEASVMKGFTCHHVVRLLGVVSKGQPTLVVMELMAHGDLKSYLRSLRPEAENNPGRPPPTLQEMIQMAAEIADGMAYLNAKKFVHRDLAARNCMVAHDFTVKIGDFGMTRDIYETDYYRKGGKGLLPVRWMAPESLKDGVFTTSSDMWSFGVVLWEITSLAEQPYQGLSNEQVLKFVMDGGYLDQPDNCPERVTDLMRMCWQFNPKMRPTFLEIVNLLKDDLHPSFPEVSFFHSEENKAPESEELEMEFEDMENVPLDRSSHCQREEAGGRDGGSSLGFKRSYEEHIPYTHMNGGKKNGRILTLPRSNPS
The test is described as follows: TR-FRET kinase assay of purified hIR. It counts as biochemical. Conditions: activated hIR 0.5 nM, 10 μM ATP, values given as pIC50 category. On the technique in general: TR-FRET usually uses a lanthanide donor and a delayed reading to cut background.

In test [1] the target is T3, NIH-3T3 cells overexpressing human IGF-1R (Homo sapiens, UniProt P08069).
T3 construct: expressed in transfected cells; host or cells: NIH-3T3 (mouse fibroblasts)
T3 sequence (P08069 31-1367): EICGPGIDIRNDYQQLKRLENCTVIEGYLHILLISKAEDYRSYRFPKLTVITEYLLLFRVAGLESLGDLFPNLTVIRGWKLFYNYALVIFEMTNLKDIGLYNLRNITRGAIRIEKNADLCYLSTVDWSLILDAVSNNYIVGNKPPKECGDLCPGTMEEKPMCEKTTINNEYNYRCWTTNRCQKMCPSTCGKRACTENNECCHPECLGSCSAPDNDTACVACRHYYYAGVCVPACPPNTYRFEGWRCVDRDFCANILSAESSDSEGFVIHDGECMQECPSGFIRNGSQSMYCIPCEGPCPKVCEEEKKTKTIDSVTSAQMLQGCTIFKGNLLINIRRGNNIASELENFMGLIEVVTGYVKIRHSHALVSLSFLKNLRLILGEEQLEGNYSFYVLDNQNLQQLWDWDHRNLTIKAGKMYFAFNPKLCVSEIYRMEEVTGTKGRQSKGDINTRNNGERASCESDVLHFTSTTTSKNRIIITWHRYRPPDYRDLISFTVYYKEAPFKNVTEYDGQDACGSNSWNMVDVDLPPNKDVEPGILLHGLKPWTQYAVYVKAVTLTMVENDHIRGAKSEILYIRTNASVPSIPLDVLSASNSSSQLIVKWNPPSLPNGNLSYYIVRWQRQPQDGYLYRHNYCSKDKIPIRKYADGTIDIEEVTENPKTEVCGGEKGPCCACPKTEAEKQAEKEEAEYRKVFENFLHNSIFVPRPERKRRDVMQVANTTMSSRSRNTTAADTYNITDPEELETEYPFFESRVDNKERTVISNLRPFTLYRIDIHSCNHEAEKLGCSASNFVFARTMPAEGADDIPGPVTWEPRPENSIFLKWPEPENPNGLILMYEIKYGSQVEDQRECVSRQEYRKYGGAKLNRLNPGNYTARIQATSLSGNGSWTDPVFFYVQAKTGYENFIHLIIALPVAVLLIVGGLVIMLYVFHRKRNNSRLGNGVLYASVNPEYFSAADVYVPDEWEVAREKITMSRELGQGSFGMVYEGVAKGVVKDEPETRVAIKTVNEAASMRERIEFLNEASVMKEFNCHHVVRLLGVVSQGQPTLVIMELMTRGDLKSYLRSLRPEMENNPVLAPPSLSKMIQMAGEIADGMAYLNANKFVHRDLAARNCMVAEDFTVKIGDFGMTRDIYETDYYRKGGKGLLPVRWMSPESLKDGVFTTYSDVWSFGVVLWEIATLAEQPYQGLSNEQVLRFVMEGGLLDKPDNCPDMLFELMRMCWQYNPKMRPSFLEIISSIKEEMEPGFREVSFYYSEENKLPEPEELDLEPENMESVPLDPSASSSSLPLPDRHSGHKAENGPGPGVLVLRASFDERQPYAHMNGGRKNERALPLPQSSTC
The test is described as follows: IGF-1R cellular autophosphorylation (DELFIA). It counts as cell-based. The method in brief:
(§1)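 Receptor autophosphorylation measured by DELFIA, capturing IGF-1R or IRβ and detecting with europium anti-pTyr, reported as percent of IGF-1- or insulin-stimulated signal. Compounds (30 uM to 1.5 nM) added 2 h before ligand, then 15 min stimulation (IGF-1 30 ng/ml or insulin 3 ug/ml).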

Test [2] concerns the target T4, NIH-3T3 cells overexpressing human IR (Homo sapiens, UniProt P06213).
T4 construct: expressed in transfected cells; host or cells: NIH-3T3 (mouse fibroblasts)
The test can be described thus: IR cellular autophosphorylation (DELFIA). Conditions: 2 h compound, insulin 3 ug/ml for 15 minutes, IC50 category. It counts as cell-based. Summed up: as §1

T4 sequence (P06213 28-1382): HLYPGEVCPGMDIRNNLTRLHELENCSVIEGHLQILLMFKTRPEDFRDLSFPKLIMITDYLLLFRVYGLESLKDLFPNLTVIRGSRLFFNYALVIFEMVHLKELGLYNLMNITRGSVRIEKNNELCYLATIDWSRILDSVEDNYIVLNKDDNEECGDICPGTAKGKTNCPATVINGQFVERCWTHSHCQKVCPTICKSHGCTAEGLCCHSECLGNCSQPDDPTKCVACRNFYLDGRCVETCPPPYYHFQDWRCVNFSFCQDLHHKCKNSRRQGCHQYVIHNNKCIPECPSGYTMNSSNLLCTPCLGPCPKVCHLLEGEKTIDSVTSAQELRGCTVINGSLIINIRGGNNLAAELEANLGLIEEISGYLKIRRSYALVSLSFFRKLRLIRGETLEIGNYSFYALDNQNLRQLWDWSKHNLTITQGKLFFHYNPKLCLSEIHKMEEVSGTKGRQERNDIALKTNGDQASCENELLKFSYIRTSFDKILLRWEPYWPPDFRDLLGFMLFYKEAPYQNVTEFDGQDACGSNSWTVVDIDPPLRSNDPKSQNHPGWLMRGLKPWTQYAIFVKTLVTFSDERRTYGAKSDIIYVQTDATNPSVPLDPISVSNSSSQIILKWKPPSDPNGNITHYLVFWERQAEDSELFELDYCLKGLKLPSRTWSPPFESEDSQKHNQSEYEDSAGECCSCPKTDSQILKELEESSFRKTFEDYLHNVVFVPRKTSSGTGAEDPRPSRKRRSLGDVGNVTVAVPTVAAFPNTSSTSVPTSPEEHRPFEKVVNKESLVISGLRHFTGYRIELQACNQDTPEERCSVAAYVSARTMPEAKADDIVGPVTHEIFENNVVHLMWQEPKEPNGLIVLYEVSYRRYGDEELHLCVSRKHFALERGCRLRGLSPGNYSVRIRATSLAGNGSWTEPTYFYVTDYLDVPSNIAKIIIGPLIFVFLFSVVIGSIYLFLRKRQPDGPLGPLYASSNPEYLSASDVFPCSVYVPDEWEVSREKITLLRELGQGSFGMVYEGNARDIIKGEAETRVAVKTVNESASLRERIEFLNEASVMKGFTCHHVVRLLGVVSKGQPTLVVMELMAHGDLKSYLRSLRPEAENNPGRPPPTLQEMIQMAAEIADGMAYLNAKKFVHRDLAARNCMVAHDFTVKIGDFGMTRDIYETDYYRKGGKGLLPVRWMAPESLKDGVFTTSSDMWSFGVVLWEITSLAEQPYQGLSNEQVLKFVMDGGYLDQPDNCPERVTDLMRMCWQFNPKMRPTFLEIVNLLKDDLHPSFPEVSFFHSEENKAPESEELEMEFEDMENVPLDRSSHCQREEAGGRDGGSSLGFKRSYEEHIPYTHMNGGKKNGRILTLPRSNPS
T1 sequence (P08069 957-1367): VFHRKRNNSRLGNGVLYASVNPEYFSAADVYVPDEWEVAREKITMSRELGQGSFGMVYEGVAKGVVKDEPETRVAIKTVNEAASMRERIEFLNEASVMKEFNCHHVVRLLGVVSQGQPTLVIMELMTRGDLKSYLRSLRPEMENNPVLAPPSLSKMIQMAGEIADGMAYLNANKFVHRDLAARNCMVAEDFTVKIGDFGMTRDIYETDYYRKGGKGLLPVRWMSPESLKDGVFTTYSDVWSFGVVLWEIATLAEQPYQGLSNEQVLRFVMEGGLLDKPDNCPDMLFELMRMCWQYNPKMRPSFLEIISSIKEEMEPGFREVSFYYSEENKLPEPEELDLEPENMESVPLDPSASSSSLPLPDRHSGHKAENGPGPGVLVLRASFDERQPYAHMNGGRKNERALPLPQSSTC

Regarding `CNC(=O)c1c(F)cccc1Nc1nc(Nc2cc3c(cc2OC)CCCN3C(=O)[C@@H]2CCCN2C)nc2[nH]ccc12` [Example 202, 2-fluoro-N-methyl-6-[(2-{[6-(methyloxy)-1-(1-methyl-L-prolyl)-1,2,3,4-tetrahydro-7-quinolinyl]amino}-1H-pyrrolo[2,3-d]pyrimidin-4-yl)amino]benzamide], the IC50 on human IGF1R (hIGF1R) was 5.01 to 200 nM; against human IR (hIR) it was 5.01 to 158 nM; in test [1] it was 100 to 500 nM; in test [2], 100 to 500 nM.

With `CCN(CC)CC(=O)N1CCc2cc(OC)c(Nc3nc(Nc4cccc(F)c4C(=O)NC)c4cc[nH]c4n3)cc21` [Example 137, 2-[(2-{[1-(N,N-diethylglycyl)-5-(methyloxy)-2,3-dihydro-1H-indol-6-yl]amino}-1H-pyrrolo[2,3-d]pyrimidin-4-yl)amino]-6-fluoro-N-methylbenzamide], the IC50 on human IGF1R (hIGF1R) is 5.01 to 200 nM; on human IR (hIR), 5.01 to 158 nM; in test [1], 100 to 500 nM; in test [2], 100 to 500 nM.

Regarding `CNC(=O)c1cc2ccccc2cc1Nc1nc(Nc2cc3c(cc2OC)CCN3C(=O)CN(C)C)nc2[nH]ccc12` [Example 125, 3-[(2-{[1-(N,N-dimethylglycyl)-5-(methyloxy)-2,3-dihydro-1H-indol-6-yl]amino}-1H-pyrrolo[2,3-d]pyrimidin-4-yl)amino]-N-methyl-2-naphthalenecarboxamide], the IC50 on human IGF1R (hIGF1R) is 0.251 to 1 nM; against human IR (hIR) it was 0.251 to 1 nM; in test [1], 100 to 500 nM; in test [2] it was 100 to 500 nM.

On to `CCCN1CCC=C(c2ccc(Nc3nc(Nc4ccccc4C(N)=O)c4cc[nH]c4n3)c(OC)c2)C1` [Example 2, 2-[(2-{[2-(methyloxy)-4-(1-propyl-1,2,5,6-tetrahydro-3-pyridinyl)phenyl]amino}-1H-pyrrolo[2,3-d]pyrimidin-4-yl)amino]benzamide], for which the IC50 was 0.251 to 1 nM at human IGF1R (hIGF1R), 0.251 to 1 nM against human IR (hIR), 100 to 500 nM in test [1] and 100 to 500 nM in test [2].

For `CCNC(=O)c1c(F)cc(F)cc1Nc1nc(Nc2cc3c(cc2OC)CCN3C(=O)CN(C)C)nc2[nH]ccc12` [Example 151, 2-[(2-{[1-(N,N-dimethylglycyl)-5-(methyloxy)-2,3-dihydro-1H-indol-6-yl]amino}-1H-pyrrolo[2,3-d]pyrimidin-4-yl)amino]-N-ethyl-4,6-difluorobenzamide], the IC50 at human IGF1R (hIGF1R) is 0.251 to 1 nM; against human IR (hIR), 0.251 to 1 nM; in test [1], 100 to 500 nM; in test [2], 100 to 500 nM.

Regarding `CCCN1CCC(N2CCc3cc(OC)c(Nc4nc(Nc5cccc(F)c5C(N)=O)c5cc[nH]c5n4)cc3C2)CC1` [Example 122, 2-fluoro-6-[(2-{[6-(methyloxy)-2-(1-propyl-4-piperidinyl)-1,2,3,4-tetrahydro-7-isoquinolinyl]amino}-1H-pyrrolo[2,3-d]pyrimidin-4-yl)amino]benzamide], the IC50 at human IGF1R (hIGF1R) was 5.01 to 200 nM; against human IR (hIR), 1.26 to 3.98 nM; in test [1], 100 to 500 nM; in test [2] it was under 100 nM.

As to `CCCN1CCC=C(c2ccc(Nc3nc(Nc4ccc(F)cc4C(N)=O)c4cc[nH]c4n3)c(OC)c2)C1` [Example 54, 5-fluoro-2-[(2-{[2-(methyloxy)-4-(1-propyl-1,2,5,6-tetrahydro-3-pyridinyl)phenyl]amino}-1H-pyrrolo[2,3-d]pyrimidin-4-yl)amino]benzamide], the IC50 at human IGF1R (hIGF1R) was 0.251 to 1 nM; against human IR (hIR) it was 0.251 to 1 nM; in test [1], 100 to 500 nM; in test [2] it was 100 to 500 nM.

As for `COc1cc2c(cc1Nc1nc(Nc3cccc(F)c3C(N)=O)c3cc[nH]c3n1)N(C(=O)CCN(C)C)CC2` [Example 118, 2-[(2-{[1-(N,N-dimethyl-b-alanyl)-5-(methyloxy)-2,3-dihydro-1H-indol-6-yl]amino}-1H-pyrrolo[2,3-d]pyrimidin-4-yl)amino]-6-fluorobenzamide], the IC50 at human IGF1R (hIGF1R) is 5.01 to 200 nM; against human IR (hIR), 5.01 to 158 nM; in test [1] it was 100 to 500 nM; in test [2], over 500 nM.

For `COc1cc2c(cc1Nc1nc(Nc3cccc(F)c3C(N)=O)c3cc[nH]c3n1)CN(C(=O)CCN1CCN(C(C)C)CC1)CC2` [Example 229, 2-fluoro-6-[(2-{[2-{3-[4-(1-methylethyl)-1-piperazinyl]propanoyl}-6-(methyloxy)-1,2,3,4-tetrahydro-7-isoquinolinyl]amino}-1H-pyrrolo[2,3-d]pyrimidin-4-yl)amino]benzamide], the IC50 at human IGF1R (hIGF1R) is 5.01 to 200 nM; on human IR (hIR), 5.01 to 158 nM; in test [1], over 500 nM; in test [2] it was over 500 nM.

As to `COc1cc2c(cc1Nc1nc(Nc3cccc(F)c3C(N)=O)c3cc[nH]c3n1)N(C(=O)CN1CCN(C(C)C)CC1)CC2` [Example 186, 2-fluoro-6-[(2-{[1-{[4-(1-methylethyl)-1-piperazinyl]acetyl}-5-(methyloxy)-2,3-dihydro-1H-indol-6-yl]amino}-1H-pyrrolo[2,3-d]pyrimidin-4-yl)amino]benzamide], the IC50 is 5.01 to 200 nM on human IGF1R (hIGF1R), 5.01 to 158 nM at human IR (hIR), 100 to 500 nM in test [1] and over 500 nM in test [2].

In the case of `COc1cc2c(cc1Nc1nc(Nc3cccc(F)c3C(N)=O)c3cc[nH]c3n1)N(C(=O)[C@@H]1CCCN1C)CC2` [Example 147, 2-fluoro-6-[(2-{[5-(methyloxy)-1-(1-methyl-L-prolyl)-2,3-dihydro-1H-indol-6-yl]amino}-1H-pyrrolo[2,3-d]pyrimidin-4-yl)amino]benzamide], the IC50 on human IGF1R (hIGF1R) was 5.01 to 200 nM; on human IR (hIR), 1.26 to 3.98 nM; in test [1] it was 100 to 500 nM; in test [2], 100 to 500 nM.

Take `COc1cc2c(cc1Nc1nc(Nc3cccc(F)c3C(N)=O)c3cc[nH]c3n1)CN(C(=O)CCN1CCOCC1)CC2` [Example 231, 2-fluoro-6-{[2-({6-(methyloxy)-2-[3-(4-morpholinyl)propanoyl]-1,2,3,4-tetrahydro-7-isoquinolinyl}amino)-1H-pyrrolo[2,3-d]pyrimidin-4-yl]amino}benzamide]: the IC50 at human IGF1R (hIGF1R) was 5.01 to 200 nM; on human IR (hIR), 5.01 to 158 nM; in test [1] it was 100 to 500 nM; in test [2], over 500 nM.

As to `CNC(=O)c1c(F)cc(F)cc1Nc1nc(Nc2cc3c(cc2OC)CCCN3C(=O)CN(C)C)nc2[nH]ccc12` [Example 179, 2-[(2-{[1-(N,N-dimethylglycyl)-6-(methyloxy)-1,2,3,4-tetrahydro-7-quinolinyl]amino}-1H-pyrrolo[2,3-d]pyrimidin-4-yl)amino]-4,6-difluoro-N-methylbenzamide], the IC50 on human IGF1R (hIGF1R) was 0.251 to 1 nM; against human IR (hIR) it was 0.251 to 1 nM; in test [1], under 100 nM; in test [2] it was under 100 nM.

Consider `CCCN(CCC)[C@@H](C)C(=O)N1CCc2cc(OC)c(Nc3nc(Nc4cccc(F)c4C(N)=O)c4cc[nH]c4n3)cc21` [Example 192, 2-[(2-{[1-(N,N-dipropyl-L-alanyl)-5-(methyloxy)-2,3-dihydro-1H-indol-6-yl]amino}-1H-pyrrolo[2,3-d]pyrimidin-4-yl)amino]-6-fluorobenzamide], for which the IC50 is 5.01 to 200 nM at human IGF1R (hIGF1R), 1.26 to 3.98 nM on human IR (hIR), under 100 nM in test [1] and under 100 nM in test [2].

Turning to `COc1cc(N2CCOC[C@@H]2C)ccc1Nc1nc(Nc2cc(F)ccc2C(N)=O)c2cc[nH]c2n1` [Example 84, 4-fluoro-2-[(2-{[4-[(3S)-3-methyl-4-morpholinyl]-2-(methyloxy)phenyl]amino}-1H-pyrrolo[2,3-d]pyrimidin-4-yl)amino]benzamide], the IC50 at human IGF1R (hIGF1R) was 0.251 to 1 nM; on human IR (hIR) it was 0.251 to 1 nM; in test [1], under 100 nM; in test [2], under 100 nM.

As for `COc1cc2c(cc1Nc1nc(Nc3cc(F)cc(F)c3C(N)=O)c3cc[nH]c3n1)N(C(=O)CN(C)C)CCC2` [Example 178, 2-[(2-{[1-(N,N-dimethylglycyl)-6-(methyloxy)-1,2,3,4-tetrahydro-7-quinolinyl]amino}-1H-pyrrolo[2,3-d]pyrimidin-4-yl)amino]-4,6-difluorobenzamide], the IC50 was 0.251 to 1 nM at human IGF1R (hIGF1R), 0.251 to 1 nM against human IR (hIR), under 100 nM in test [1] and under 100 nM in test [2].

As to `CNC(=O)c1c(F)cccc1Nc1nc(Nc2cc3c(cc2OC)CCN3C(C)=O)nc2[nH]ccc12` [Example 135, 2-[(2-{[1-acetyl-5-(methyloxy)-2,3-dihydro-1H-indol-6-yl]amino}-1H-pyrrolo[2,3-d]pyrimidin-4-yl)amino]-6-fluoro-N-methylbenzamide], the IC50 is 5.01 to 200 nM on human IGF1R (hIGF1R), 5.01 to 158 nM against human IR (hIR), over 500 nM in test [1] and over 500 nM in test [2].

As to `COc1cc2c(cc1Nc1nc(Nc3cc(Cl)cc(F)c3C(N)=O)c3cc[nH]c3n1)N(C(=O)CN1CCCC1)CC2` [Example 175, 4-chloro-2-fluoro-6-[(2-{[5-(methyloxy)-1-(1-pyrrolidinylacetyl)-2,3-dihydro-1H-indol-6-yl]amino}-1H-pyrrolo[2,3-d]pyrimidin-4-yl)amino]benzamide], the IC50 on human IGF1R (hIGF1R) was 0.251 to 1 nM; against human IR (hIR), 0.251 to 1 nM; in test [1], under 100 nM; in test [2], under 100 nM.
